Tested on: retinal ganglion cells
Assay: Mouse ophthalmic artery occlusion model: retinal ischemia 2 hours, reperfusion 22 hours, survival of retinal ganglion cells
Type: in vivo, C57BL/6N normal mice (wild type mice)
Conditions: for The number of surviving retinal ganglion cells per 1 μm of retina section, average ± SEM: drug given by forced intragastric administration 15 minutes before reperfusion
Protocol: In the experiment, mouse models with acute ophthalmic artery infarction, namely, mouse models with ophthalmic artery infarction were used. In Experiment 1, eight to ten-week-old C57BL/6N normal mice (wild type mice) were used and the therapeutic efficacy of fidarestat as the compound with aldose reductase (AR) inhibiting activity was evaluated. Here, those mice were divided into two groups: a control group to which only vehicle was administered and a fidarestat administered group to which fidarestat was administered. In Experiment 2, eight to ten-week-old C57BL/6N normal mice (wild type mice:AR^+/+ mice) and AR gene-deficient mice (AR^−/− mice) were used and the role of AR was examined. Here, those mice were divided into two groups: a wild type mouse group (AR^+/+ mice) and an AR gene-deficient mouse group (AR^−/− mice) and a drug administered group was not used.
Used mice (24 to 28 g of body weight) were subjected to intraluminal suture with nylon monofilament under gas anesthesia. A nylon filament was inserted into the right internal carotid artery at the bifurcation of the middle cerebral artery and the anterior cerebral artery from the common carotid artery. The mice were subjected to retinal ischemia in the right eye. The filament was pulled 2 hours after the ischemia and reperfusion was performed for 22 hours. On the other hand, left eye was evaluated as a normal control eye. In order to confirm ischemia or reperfusion, relative cerebral blood flow (rCBF) in the middle cerebral artery was monitored with a laser Doppler meter during the experiment. Decrease in the rCBF of 75% or more was defined as middle cerebral artery ischemia. The drug was administered 15 minutes before reperfusion starts by forced intragastric administration. At the end of the experiment, the isolated eyes were fixed in 4% paraformaldehyde at 4° C. overnight. The retinal ganglion cell layer was subjected to hematoxylin and eosin stain. Then, the number of surviving retinal ganglion cells was observed and measured. […] All cells of the retina ganglionic layer in each retina section were measured. Further, all measurements were performed by a blind fashion.

## NC(=O)[C@@H]1C[C@]2(NC(=O)NC2=O)c2cc(F)ccc2O1 [Fidarestat, (2S,4S)-6-fluoro-2′,5′-dioxospiro[chroman-4,4′-imidazolidine]-2-carboxamide]
Side of no retinal ischemia (left eye, normal control eye)
  The number of surviving retinal ganglion cells per 1 μm of retina section, average ± SEM: 23 ± 1 per 1 μm of retina section
Side of retinal ischemia (right eye), 2 hours ischemia and 22 hours reperfusion, P<0.001 vs control group
  The number of surviving retinal ganglion cells per 1 μm of retina section, average ± SEM: 21 ± 1^†††^ per 1 μm of retina section
Side of retinal ischemia or side of no retinal ischemia, 2 hours ischemia, 22 hours reperfusion (FIG. 1: D3, D4)
  Pathological finding showing retinal ganglion cell death (hematoxylin and eosin stain): not observed
Side of retinal ischemia, P<0.001
  Number of surviving retinal ganglion cells on the side of retinal ischemia compared with the control group: significantly increased

Reference: US8536212B2, “Protective agent for retinal nerve or optic nerve” (Sanwa Kagaku Kenkyusho Co., Ltd., priority 2007, dated 2013)
